“And” between values parts separate entries of the source, which are not always exact repeats. Identical values can stand only once. Like-named read-outs stand apart in the source and are kept apart here.
Tests used:
[1] = Microdialysis (striatal dialysate and blood) in cynomolgus monkeys; assay type: in vivo, cynomolgus monkey; details: for Cmax: po, read-out: Cmax; for AUC: read-out: AUC
Procedure: Monkeys were sedated by intramuscular (i.m.) ketamine administration and cannulated for intravenous (i.v.) administration of propofol infusion (initiated 15–30 min after ketamine administration). Subsequently, the animals were placed in an magnetic resonance imaging (MRI)-compatible stereotaxic frame (Kopf Model 1430), and T1 and T2 weighted scans (for up to 1 h) were carried out with a 7 cm loop-coil in a 3 Tesla Siemens Magnetom TIM Trio (Germany). To derive the coordinates, Digital Imaging and Communications in Medicine (DICOM) files were transformed into Neuroimaging Informatics Technology Initiative (NIFTI) format. NIFTI-compatible images were loaded into 3D viewer software (MRIcro version 1.40 build 1), and the stereotaxic zero in the MRI image was determined using the coordinates of the earbar-tips. Coordinates for placement of the guide cannulas were calculated for every individual animal by use of MRI images and a primate brain map.
On a separate day, microdialysis guide cannulas were placed bilaterally in the head of the caudate nucleus using the same MRI compatible stereotaxic frame (Kopf Model 1430), under isoflurane anesthesia. Prior to surgery, animals were administered ketamine (i.m.), and subsequently anesthetized with isoflurane (0.8%-2% inhalation) while artificially ventilated with O2/N2O (40/60) at 60 to 80 mL tidal volume via an intratracheal tube. During surgery, subcutaneous or i.v. fluids were provided. Animals were allowed to recover from the anesthesia in a warmed environment, single housed, and given at a minimum a 14-day post-surgery recovery time. The following medications were administered to reduce pain and inflammation, as well as reduce the chance of post-operative infection: meloxicam (Metacam 5 mg/mL, 0.2 mg/kg, buprenorphine (Temgesic, 0.3 mg/mL, 0.0038 mg/kg), enrofloxacine (25 mg/mL, 5 mg/kg), and amoxicillin (150 mg/mL, 15 mg/kg).
Samples were stored in -80°C.
From monkeys only, whole blood samples (0.5 mL) were collected from the femoral vein at -1, 0, 1, 2, and 3 h relative to dosing and transferred immediately to chilled polypropylene 15 mL vials containing 2500 μL of 0.15% formic acid in acetonitrile, mixed, and placed on dry ice. After the collections samples were stored at -80°C.
Sample preparation for monkey dialysate and blood samples: Concentrations of fosmetpantotenate (D1 and D2), PA, and PPA in monkey dialysate and blood samples were determined by Brains On-Line LLC. […] For dialysate quantitation, standards and QC samples were prepared in control dialysate (0.2% BSA in aCSF: water: 0.04% ascorbic acid in aqueous 0.02 M formic acid [4.5:24:6 v/v/v]). Standards, QC samples, and dialysate (10 μL) were mixed with 6 μL 20 mM formic acid and 0.01% ascorbic acid in water containing internal standard (10 ng/mL of ^15N/^13C3-PA) and analyzed by LC-MS/MS. Blood standards and QC samples were prepared in supernatant from control monkey blood which had been treated with 5 volumes of 0.15% formic acid in acetonitrile. Endogenous levels >LLOQ were detected for PA in control quenched blood only and quantitated at 56.56 nM based on calibration standard prepared in solvent. To compensate for endogenous PA in the calibration curve control blood, PA standard curve concentrations were spiked plus endogenous levels. Sample work-up of blood involved diluting 10 μL supernatant from study blood samples, standards, and QC samples with 90 μL of 20 mM formic acid and 0.01% ascorbic acid in water, then treating with 4 μL 20 mM formic acid and 0.01% ascorbic acid in water containing internal standard (10 ng/mL of ^15N/^13C3-PA) and analyzing by LC-MS/MS.

[2] = Metabolic stability in rat whole blood; assay type: in vitro ADME; details: for Percentage Remaining: rat whole blood, replicates 1 and 2, listed as Fosmetpantotenate Total
Procedure: Metabolic stability in blood and liver microsomes: Fosmetpantotenate or its individual diastereomers (5 μM, n = 2, 37°C) were incubated in mouse, rat, cynomolgus monkey, and human whole blood. Samples (50 μL) were taken at 0, 5, 15, 30, and 60 min. Incubations of fosmetpantotenate or its individual diastereomers (1 μM, n = 2, 37°C) in pooled liver microsomes (0.25 mg protein/mL in 0.1 M phosphate buffer pH 7.4) were initiated with the addition of nicotinamide adenine dinucleotide phosphate (NADPH; 1 mM). Aliquots (100 μL) were obtained at 0, 5, 10, 20, and 40 min and added to 150 μL of 0.1% formic acid in acetonitrile-containing carbamazepine (0.5 μM) as an analytical internal standard, centrifuged, and the supernatants analyzed by LC-MS/MS.
Bioanalysis for determinations of analyte stability: Samples were analyzed using a benchtop tandem quadrupole detector (TQD) mass spectrometer (Waters Ltd, Centennial Park, Hertfordshire). […] Suitable retention and peak shape with separation of the 2 diastereomers were obtained. The chromatography column was a Phenomenex-Kinetex XB C18 (2.10 x 50 mm; 2.6 μm), with a 0.7 mL/min flow rate and a 2 μL injection volume. […] The gradient was initiated with 20% B and increased linearly, reaching 40% B at 0.6 min, followed by 50% B at 0.8 min and by 95% B at 0.9 min. Conditions were kept isocratic through 1.2 min, returned to starting conditions (20% B) at 1.25 min, and maintained at 20% B through 1.5 min before the next injection. Since fosmetpantotenate is a mixture of diastereomers which are resolved chromatographically, the fosmetpantotenate MRM area corresponds to the sum of the MRM areas of the individual diastereomers.
The percent of compound remaining was determined from the MRM area response in each sample relative to that in the T = 0 samples (normalized for internal standard). Natural log plots of the percent compound remaining over time were used to determine the t½ of compound disappearance using the relationship t½ = -0.693/λ, where λ is the slope of the natural logarithm of the percent compound remaining vs time curve.

In the case of `COC(=O)CCNC(=O)[C@H](O)C(C)(C)COP(=O)(N[C@@H](C)C(=O)OC)Oc1ccccc1` (mixture of isomers) [Fosmetpantotenate], the “fold increase in dialysate AUC from 100 to 300 mg/kg” value ([1]; PA basal adjusted, analyte = label) is reported as 5.0 fold, the “fold increase in blood estimated exposure from 100 to 300 mg/kg” value ([1]; blood) is reported as ~ 3.6 fold and the concentration at 0.5 h ([1]; cynomolgus monkey, in vivo, 300 mg/kg, individual Cyno, Fosmetpantotentate 300 mg/kg PO, corrected for dilution, post-dose, time 0.5 hr, read-out: Fosmetpantotenate Dialysate Concentration) is reported as 2060 nM. For the same compound, the concentration at 1 h ([1]; cynomolgus monkey, in vivo, 300 mg/kg, individual Cyno, Fosmetpantotentate 300 mg/kg PO, corrected for dilution, post-dose, time 1 hr, read-out: Fosmetpantotenate Dialysate Concentration) was 393 nM, the concentration at 1.5 h ([1]; cynomolgus monkey, in vivo, 300 mg/kg, individual Cyno, Fosmetpantotentate 300 mg/kg PO, corrected for dilution, post-dose, time 1.5 hr, read-out: Fosmetpantotenate Dialysate Concentration) was 76 nM and the concentration at 2 h ([1]; cynomolgus monkey, in vivo, 300 mg/kg, individual Cyno, Fosmetpantotentate 300 mg/kg PO, corrected for dilution, post-dose, time 2 hr, read-out: Fosmetpantotenate Dialysate Concentration) was 20 nM. For the same compound, the concentration at 2.5 h ([1]; cynomolgus monkey, in vivo, 300 mg/kg, individual Cyno, Fosmetpantotentate 300 mg/kg PO, corrected for dilution, post-dose, time 2.5 hr, read-out: Fosmetpantotenate Dialysate Concentration) was 7.12 nM, the concentration at 1 h ([1]; cynomolgus monkey, in vivo, 300 mg/kg, individual Cyno, Fosmetpantotentate 300 mg/kg PO, post-dose, time 1 hr, read-out: Fosmetpantotenate Blood Concentration) was 7390 nM and the concentration at 3 h ([1]; cynomolgus monkey, in vivo, 300 mg/kg, individual Cyno, Fosmetpantotentate 300 mg/kg PO, post-dose, time 3 hr, read-out: Fosmetpantotenate Blood Concentration) was 227 nM. For the same compound, the Cmax ([1]; cynomolgus monkey, in vivo, 100 mg/kg, blood, fosmetpantotenate 100 mg/kg PO, analyte = label) was 1650 ± 1930 nM, the Cmax ([1]; cynomolgus monkey, in vivo, 100 mg/kg, dialysate, fosmetpantotenate 100 mg/kg PO) was 221 ± 253 nM and the Cmax ([1]; cynomolgus monkey, in vivo, 300 mg/kg, dialysate, fosmetpantotenate 300 mg/kg PO, mean (individual values)) was 1560 nM. The AUC ([1]; cynomolgus monkey, in vivo, dialysate, fosmetpantotenate 100 mg/kg PO) was 0.209 ± 0.234 µM·h, the AUC ([1]; cynomolgus monkey, in vivo, dialysate, fosmetpantotenate 300 mg/kg PO, mean (individual values)) was 1.03 µM·h and the concentration at 3 h ([1]; cynomolgus monkey, in vivo, individual Cyno, Fosmetpantotentate 300 mg/kg PO, corrected for dilution, post-dose, time 3 hr, LLOQ D1=0.2 nM, D2=0.3 nM, read-out: Fosmetpantotenate Dialysate Concentration) was 23.7 nM. It also gave a Cmax ([1]; cynomolgus, cynomolgus monkey, in vivo, 300 mg/kg, blood, fosmetpantotenate 300 mg/kg PO, mean (individual values), analyte = label) of 6040 nM, an AUC ([1]; cynomolgus, cynomolgus monkey, in vivo, blood, fosmetpantotenate 100 mg/kg PO, analyte = label) of 1.87 ± 1.96 µM·h and an AUC ([1]; cynomolgus, cynomolgus monkey, in vivo, blood, fosmetpantotenate 300 mg/kg PO, mean (individual values), analyte = label) of 6.81 µM·h. For the same compound, the concentration at 3 h ([1]; individual Cyno, Fosmetpantotentate 300 mg/kg PO, corrected for dilution, post-dose, time 0.5 hr, read-out: Fosmetpantotenate Dialysate Concentration) was 1059.88 nM, the concentration at 3 h ([1]; individual Cyno, Fosmetpantotentate 300 mg/kg PO, corrected for dilution, post-dose, time 1 hr, read-out: Fosmetpantotenate Dialysate Concentration) was 429.27 nM and the concentration at 3 h ([1]; individual Cyno, Fosmetpantotentate 300 mg/kg PO, corrected for dilution, post-dose, time 1.5 hr, read-out: Fosmetpantotenate Dialysate Concentration) was 72.40 nM. For the same compound, the concentration at 3 h ([1]; individual Cyno, Fosmetpantotentate 300 mg/kg PO, corrected for dilution, post-dose, time 2 hr, read-out: Fosmetpantotenate Dialysate Concentration) was 19.06 nM, the concentration at 3 h ([1]; individual Cyno, Fosmetpantotentate 300 mg/kg PO, corrected for dilution, post-dose, time 2.5 hr, read-out: Fosmetpantotenate Dialysate Concentration) was 4.54 nM and the “Fosmetpantotenate Dialysate Concentration” value ([1]; individual Cyno, Fosmetpantotentate 300 mg/kg PO, corrected for dilution, post-dose, time 3 hr, LLOQ D1=0.2 nM, D2=0.3 nM) was “BLQ”. The “Fosmetpantotenate Dialysate Concentration” value ([1]; individual Cyno, Fosmetpantotentate 300 mg/kg PO, corrected for dilution, pre-dose, time 0 hr, LLOQ D1=0.2 nM, D2=0.3 nM) was “<LLOQ”, the “Fosmetpantotenate Dialysate Concentration” value ([1]; individual Cyno, Fosmetpantotentate 300 mg/kg PO, corrected for dilution, pre-dose, time -0.5 hr, LLOQ D1=0.2 nM, D2=0.3 nM) was “<LLOQ” and the “Fosmetpantotenate Dialysate Concentration” value ([1]; individual Cyno, Fosmetpantotentate 300 mg/kg PO, corrected for dilution, pre-dose, time -1 hr, LLOQ D1=0.2 nM, D2=0.3 nM) was “<LLOQ”. For the same compound, the concentration at 1 h ([1]; individual Cyno, Fosmetpantotentate 300 mg/kg PO, post-dose, time 1 hr, read-out: Fosmetpantotenate Blood Concentration) was 4687.62 nM, the concentration at 1 h ([1]; individual Cyno, Fosmetpantotentate 300 mg/kg PO, post-dose, time 2 hr, read-out: Fosmetpantotenate Blood Concentration) was 1026.66 nM and 312.23 nM and the concentration at 1 h ([1]; individual Cyno, Fosmetpantotentate 300 mg/kg PO, post-dose, time 3 hr, read-out: Fosmetpantotenate Blood Concentration) was 183.68 nM. The “Fosmetpantotenate Blood Concentration” value ([1]; individual Cyno, Fosmetpantotentate 300 mg/kg PO, pre-dose, time 0 hr relative to dose) was “<LLOQ”, the “Fosmetpantotenate Blood Concentration” value ([1]; individual Cyno, Fosmetpantotentate 300 mg/kg PO, pre-dose, time -1 hr relative to dose) was “<LLOQ” and the half-life at 5 μM ([2]; rat blood, 5 μM, 37°C, 60 min) was < 5 min. The “Percentage Remaining” value ([2]; 5 min) was 6% and 1%, the “Percentage Remaining” value ([2]; 15 min) was 0% and 8% and the “Percentage Remaining” value ([2]; 60 min) was 0%.

— paper PMC5844530, “Fosmetpantotenate (RE-024), a phosphopantothenate replacement therapy for pantothenate kinase-associated neurodegeneration: Mechanism of action and efficacy in nonclinical models” (PLoS ONE, 2018)
